Experimental data: ChEMBL document CHEMBL4665775, “Half-life extension of peptidic APJ agonists by N-terminal lipid conjugation” (Bioorg Med Chem Lett, 2020)

Legend:
Apelin receptor = molecular target: T1, Apelin receptor (Rattus norvegicus, UniProt Q9JHG3); test: Agonist activity at rat APJ receptor stably expressed in CHO cell membranes in presence of [35S]GTPgammaS by scintillation proximity assay; type: functional
T1 sequence (Q9JHG3 whole entry): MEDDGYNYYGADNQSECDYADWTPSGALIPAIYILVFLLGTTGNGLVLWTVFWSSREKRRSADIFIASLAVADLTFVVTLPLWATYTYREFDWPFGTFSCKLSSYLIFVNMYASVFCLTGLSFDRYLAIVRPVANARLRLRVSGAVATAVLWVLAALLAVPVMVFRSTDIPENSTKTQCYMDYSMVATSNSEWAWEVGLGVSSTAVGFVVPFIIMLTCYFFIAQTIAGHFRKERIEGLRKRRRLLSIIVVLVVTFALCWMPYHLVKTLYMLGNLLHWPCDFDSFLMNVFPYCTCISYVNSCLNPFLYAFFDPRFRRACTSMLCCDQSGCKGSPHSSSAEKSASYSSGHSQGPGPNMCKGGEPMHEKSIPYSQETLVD

[1] = Plasma protein binding in rat assessed as unbound fraction by LC-MS/MS analysis; type: ADME, cell-free
[2] = Stability in rat plasma assessed as compound remaining at 4 hrs; type: ADME, cell-free; details: read-out: Stabilty
[3] = Stability in rat Kidney S9 fraction assessed as compound remaining at 4 hrs; type: ADME, subcellular; details: read-out: Stabilty

Structure (SMILES)	EC50 (Apelin receptor)	fraction unbound [1]	remaining at 4 h [2]	remaining at 4 h [3]
CC(C)C[C@@H](C(=O)N[C@@H](CO)C(=O)N[C@@H](Cc1c[nH]cn1)C(=O)N[C@@H](CCCCN)C(=O)NCC(=O)N1[C@H](C(=O)N[C@@H](Cc2ccc(I)cc2)C(=O)N2CCC[C@H]2C(=O)N[C@H](Cc2ccc(-c3ccccc3)cc2)C(=O)O)C[C@@H]2CCCC[C@@H]21)N(C)C(=O)[C@@H](CCCNC(=N)N)NC(=O)[C@@H]1CCCN1C(=O)[C@H](CCCCNC(=N)N)NC(=O)[C@H](CCC(N)=O)NC(=O)[C@@H](CCCNC(=N)N)NC(=O)[C@H](CCCCNC(=N)N)NC(=O)COCCOCCNC(=O)COCCOCCNC(=O)CC[C@H](NC(=O)CCCCCCC(=O)O)C(=O)O	2.61 nM	–	–	–
CCCCCCCCCCCCCCCCCC(=O)N[C@@H](CCC(=O)NCCOCCOCC(=O)NCCOCCOCC(=O)N[C@@H](CCCCNC(=N)N)C(=O)N[C@H](CCCNC(=N)N)C(=O)N[C@@H](CCC(N)=O)C(=O)N[C@@H](CCCCNC(=N)N)C(=O)N1CCC[C@H]1C(=O)N[C@H](CCCNC(=N)N)C(=O)N(C)[C@@H](CC(C)C)C(=O)N[C@@H](CO)C(=O)N[C@@H](Cc1c[nH]cn1)C(=O)N[C@@H](CCCCN)C(=O)NCC(=O)N1[C@H](C(=O)N[C@@H](Cc2ccc(I)cc2)C(=O)N2CCC[C@H]2C(=O)N[C@H](Cc2ccc(-c3ccccc3)cc2)C(=O)O)C[C@@H]2CCCC[C@@H]21)C(=O)O	3.78 nM	–	–	–
CC(C)C[C@@H](C(=O)N[C@@H](CO)C(=O)N[C@@H](Cc1c[nH]cn1)C(=O)N[C@@H](CCCCN)C(=O)NCC(=O)N1[C@H](C(=O)N[C@@H](Cc2ccc(I)cc2)C(=O)N2CCC[C@H]2C(=O)N[C@H](Cc2ccc(-c3ccccc3)cc2)C(=O)O)C[C@@H]2CCCC[C@@H]21)N(C)C(=O)[C@@H](CCCNC(=N)N)NC(=O)[C@@H]1CCCN1C(=O)[C@H](CCCCNC(=N)N)NC(=O)[C@H](CCC(N)=O)NC(=O)[C@@H](CCCNC(=N)N)NC(=O)[C@H](CCCCNC(=N)N)NC(=O)COCCOCCNC(=O)COCCOCCNC(=O)CC[C@H](NC(=O)CCCCCCCCCCCCCCC(=O)O)C(=O)O	56.1 nM	–	–	–
CCCCCCCCCCCCCC(=O)N[C@@H](CCC(=O)NCCOCCOCC(=O)NCCOCCOCC(=O)N[C@@H](CCCCNC(=N)N)C(=O)N[C@H](CCCNC(=N)N)C(=O)N[C@@H](CCC(N)=O)C(=O)N[C@@H](CCCCNC(=N)N)C(=O)N1CCC[C@H]1C(=O)N[C@H](CCCNC(=N)N)C(=O)N(C)[C@@H](CC(C)C)C(=O)N[C@@H](CO)C(=O)N[C@@H](Cc1c[nH]cn1)C(=O)N[C@@H](CCCCN)C(=O)NCC(=O)N1[C@H](C(=O)N[C@@H](Cc2ccc(I)cc2)C(=O)N2CCC[C@H]2C(=O)N[C@H](Cc2ccc(-c3ccccc3)cc2)C(=O)O)C[C@@H]2CCCC[C@@H]21)C(=O)O	3.63 nM	0.0023	–	–
CC(=O)N[C@@H](CCC(=O)NCCOCCOCC(=O)NCCOCCOCC(=O)N[C@@H](CCCCNC(=N)N)C(=O)N[C@H](CCCNC(=N)N)C(=O)N[C@@H](CCC(N)=O)C(=O)N[C@@H](CCCCNC(=N)N)C(=O)N1CCC[C@H]1C(=O)N[C@H](CCCNC(=N)N)C(=O)N(C)[C@@H](CC(C)C)C(=O)N[C@@H](CO)C(=O)N[C@@H](Cc1c[nH]cn1)C(=O)N[C@@H](CCCCN)C(=O)NCC(=O)N1[C@H](C(=O)N[C@@H](Cc2ccc(I)cc2)C(=O)N2CCC[C@H]2C(=O)N[C@H](Cc2ccc(-c3ccccc3)cc2)C(=O)O)C[C@@H]2CCCC[C@@H]21)C(=O)O	0.92 nM	0.001	> 90%	30%
CCCCCCCCCCCCCCCC(=O)N[C@@H](CCC(=O)NCCOCCOCC(=O)NCCOCCOCC(=O)N[C@@H](CCCCNC(=N)N)C(=O)N[C@H](CCCNC(=N)N)C(=O)N[C@@H](CCC(N)=O)C(=O)N[C@@H](CCCCNC(=N)N)C(=O)N1CCC[C@H]1C(=O)N[C@H](CCCNC(=N)N)C(=O)N(C)[C@@H](CC(C)C)C(=O)N[C@@H](CO)C(=O)N[C@@H](Cc1c[nH]cn1)C(=O)N[C@@H](CCCCN)C(=O)NCC(=O)N1[C@H](C(=O)N[C@@H](Cc2ccc(I)cc2)C(=O)N2CCC[C@H]2C(=O)N[C@H](Cc2ccc(-c3ccccc3)cc2)C(=O)O)C[C@@H]2CCCC[C@@H]21)C(=O)O	4.01 nM	0.0189	–	–
CCCCCCCCCC(=O)N[C@@H](CCC(=O)NCCOCCOCC(=O)NCCOCCOCC(=O)N[C@@H](CCCCNC(=N)N)C(=O)N[C@H](CCCNC(=N)N)C(=O)N[C@@H](CCC(N)=O)C(=O)N[C@@H](CCCCNC(=N)N)C(=O)N1CCC[C@H]1C(=O)N[C@H](CCCNC(=N)N)C(=O)N(C)[C@@H](CC(C)C)C(=O)N[C@@H](CO)C(=O)N[C@@H](Cc1c[nH]cn1)C(=O)N[C@@H](CCCCN)C(=O)NCC(=O)N1[C@H](C(=O)N[C@@H](Cc2ccc(I)cc2)C(=O)N2CCC[C@H]2C(=O)N[C@H](Cc2ccc(-c3ccccc3)cc2)C(=O)O)C[C@@H]2CCCC[C@@H]21)C(=O)O	1.35 nM	–	–	–
CC(C)C[C@@H](C(=O)N[C@@H](CO)C(=O)N[C@@H](Cc1c[nH]cn1)C(=O)N[C@@H](CCCCN)C(=O)NCC(=O)N1[C@H](C(=O)N[C@@H](Cc2ccc(I)cc2)C(=O)N2CCC[C@H]2C(=O)N[C@H](Cc2ccc(-c3ccccc3)cc2)C(=O)O)C[C@@H]2CCCC[C@@H]21)N(C)C(=O)[C@@H](CCCNC(=N)N)NC(=O)[C@@H]1CCCN1C(=O)[C@H](CCCCNC(=N)N)NC(=O)[C@H](CCC(N)=O)NC(=O)[C@@H](CCCNC(=N)N)NC(=O)[C@H](CCCCNC(=N)N)NC(=O)COCCOCCNC(=O)COCCOCCNC(=O)CC[C@H](NC(=O)CCCCCCCCCCC(=O)O)C(=O)O	9.34 nM	–	–	–
CC(C)C[C@@H](C(=O)N[C@@H](CO)C(=O)N[C@@H](Cc1c[nH]cn1)C(=O)N[C@@H](CCCCN)C(=O)NCC(=O)N1[C@H](C(=O)N[C@@H](Cc2ccc(I)cc2)C(=O)N2CCC[C@H]2C(=O)N[C@H](Cc2ccc(-c3ccccc3)cc2)C(=O)O)C[C@@H]2CCCC[C@@H]21)N(C)C(=O)[C@@H](CCCNC(=N)N)NC(=O)[C@@H]1CCCN1C(=O)[C@H](CCCCNC(=N)N)NC(=O)[C@H](CCC(N)=O)NC(=O)[C@@H](CCCNC(=N)N)NC(=O)[C@H](CCCCNC(=N)N)NC(=O)COCCOCCNC(=O)COCCOCCNC(=O)CC[C@H](NC(=O)CCCCCCCCC(=O)O)C(=O)O	2.89 nM	–	–	–
CCCCCCCC(=O)N[C@@H](CCC(=O)NCCOCCOCC(=O)NCCOCCOCC(=O)N[C@@H](CCCCNC(=N)N)C(=O)N[C@H](CCCNC(=N)N)C(=O)N[C@@H](CCC(N)=O)C(=O)N[C@@H](CCCCNC(=N)N)C(=O)N1CCC[C@H]1C(=O)N[C@H](CCCNC(=N)N)C(=O)N(C)[C@@H](CC(C)C)C(=O)N[C@@H](CO)C(=O)N[C@@H](Cc1c[nH]cn1)C(=O)N[C@@H](CCCCN)C(=O)NCC(=O)N1[C@H](C(=O)N[C@@H](Cc2ccc(I)cc2)C(=O)N2CCC[C@H]2C(=O)N[C@H](Cc2ccc(-c3ccccc3)cc2)C(=O)O)C[C@@H]2CCCC[C@@H]21)C(=O)O	3.05 nM	0.0027	–	–
CCCCCCCCCCCC(=O)N[C@@H](CCC(=O)NCCOCCOCC(=O)NCCOCCOCC(=O)N[C@@H](CCCCNC(=N)N)C(=O)N[C@H](CCCNC(=N)N)C(=O)N[C@@H](CCC(N)=O)C(=O)N[C@@H](CCCCNC(=N)N)C(=O)N1CCC[C@H]1C(=O)N[C@H](CCCNC(=N)N)C(=O)N(C)[C@@H](CC(C)C)C(=O)N[C@@H](CO)C(=O)N[C@@H](Cc1c[nH]cn1)C(=O)N[C@@H](CCCCN)C(=O)NCC(=O)N1[C@H](C(=O)N[C@@H](Cc2ccc(I)cc2)C(=O)N2CCC[C@H]2C(=O)N[C@H](Cc2ccc(-c3ccccc3)cc2)C(=O)O)C[C@@H]2CCCC[C@@H]21)C(=O)O	3.56 nM	0.0013	–	–
CC(C)C[C@@H](C(=O)N[C@@H](CO)C(=O)N[C@@H](Cc1c[nH]cn1)C(=O)N[C@@H](CCCCN)C(=O)NCC(=O)N1[C@H](C(=O)N[C@@H](Cc2ccc(I)cc2)C(=O)N2CCC[C@H]2C(=O)N[C@H](Cc2ccc(-c3ccccc3)cc2)C(=O)O)C[C@@H]2CCCC[C@@H]21)N(C)C(=O)[C@@H](CCCNC(=N)N)NC(=O)[C@@H]1CCCN1C(=O)[C@H](CCCCNC(=N)N)NC(=O)[C@H](CCC(N)=O)NC(=O)[C@@H](CCCNC(=N)N)NC(=O)[C@H](CCCCNC(=N)N)NC(=O)COCCOCCNC(=O)COCCOCCNC(=O)CC[C@H](NC(=O)CCCCCCCCCCCCC(=O)O)C(=O)O	17.8 nM	–	–	–
CCCC(=O)N[C@@H](CCC(=O)NCCOCCOCC(=O)NCCOCCOCC(=O)N[C@@H](CCCCNC(=N)N)C(=O)N[C@H](CCCNC(=N)N)C(=O)N[C@@H](CCC(N)=O)C(=O)N[C@@H](CCCCNC(=N)N)C(=O)N1CCC[C@H]1C(=O)N[C@H](CCCNC(=N)N)C(=O)N(C)[C@@H](CC(C)C)C(=O)N[C@@H](CO)C(=O)N[C@@H](Cc1c[nH]cn1)C(=O)N[C@@H](CCCCN)C(=O)NCC(=O)N1[C@H](C(=O)N[C@@H](Cc2ccc(I)cc2)C(=O)N2CCC[C@H]2C(=O)N[C@H](Cc2ccc(-c3ccccc3)cc2)C(=O)O)C[C@@H]2CCCC[C@@H]21)C(=O)O	0.24 nM	–	–	–
CC(C)C[C@@H](C(=O)N[C@@H](CO)C(=O)N[C@@H](Cc1c[nH]cn1)C(=O)N[C@@H](CCCCN)C(=O)NCC(=O)N1[C@H](C(=O)N[C@@H](Cc2ccc(I)cc2)C(=O)N2CCC[C@H]2C(=O)N[C@H](Cc2ccc(-c3ccccc3)cc2)C(=O)O)C[C@@H]2CCCC[C@@H]21)N(C)C(=O)[C@@H](CCCNC(=N)N)NC(=O)[C@@H]1CCCN1C(=O)[C@H](CCCCNC(=N)N)NC(=O)[C@H](CCC(N)=O)NC(=O)[C@@H](CCCNC(=N)N)NC(=O)[C@H](CCCCNC(=N)N)NC(=O)COCCOCCNC(=O)COCCOCCNC(=O)CC[C@H](NC(=O)CCC(=O)O)C(=O)O	0.49 nM	–	–	–
